Measurements taken from PubChem BioAssay (NCI).
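Protocol summary: plate cells (96-well), add compound at 5 concentrations, incubate 48 h, interpolate endpoints linearly. The concentration for full growth arrest is given as TGI.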

Key:
Test in all cases: NCI tumour cell line growth inhibition, 48 h
[1] = system: HOP-62 NSCLC
[2] = system: ACHN renal
[3] = system: UACC-257 melanoma
[4] = system: COLO 205 colon
[5] = system: A498 renal
[6] = system: SK-MEL-5 melanoma
[7] = system: IGROV1 ovarian
[8] = system: RXF 393 renal
[9] = system: KM12 colon
[10] = system: SNB-78 CNS
[11] = system: NCI-H522 lung
[12] = system: LXFL 529 NSCLC
[13] = system: SNB-19 CNS
[14] = system: NCI-H23 lung
[15] = system: DMS 114 small cell lung
[16] = system: UO-31 renal
[17] = system: KM20L2 colon
[18] = system: A549 NSCLC
[19] = system: SF-268 CNS
[20] = system: SF-295 CNS
[21] = system: MALME-3M melanoma
[22] = system: OVCAR-8 ovarian
[23] = system: EKVX NSCLC
[24] = system: SR leukemia
[25] = system: HOP-18 NSCLC
[26] = system: HCT-116 colon
[27] = system: M19-MEL melanoma
[28] = system: 786-0 renal
[29] = system: SK-MEL-2 melanoma
[30] = system: HCT-15 colon
[31] = system: OVCAR-5 ovarian
[32] = system: HT29 colon
[33] = system: SW-620 colon
[34] = system: TK-10 renal
[35] = system: HCC-2998 colon
[36] = system: CCRF-CEM leukemia
[37] = system: K-562 leukemia
[38] = system: SN12C renal
[39] = system: NCI-H460 lung
[40] = system: DLD-1 colon
[41] = system: MOLT-4 leukemia
[42] = system: M14 melanoma
[43] = system: UACC-62 melanoma
[44] = system: SF-539 CNS
[45] = system: U251 CNS
[46] = system: HL-60(TB) leukemia
[47] = system: HOP-92 NSCLC
[48] = system: RPMI-8226 leukemia
[49] = system: SK-OV-3 ovarian
[50] = system: OVCAR-4 ovarian
[51] = system: CAKI-1 renal
[52] = system: SNB-75 CNS
[53] = system: DMS 273 small cell lung
[54] = system: NCI-H226 lung
[55] = system: OVCAR-3 ovarian
[56] = system: SK-MEL-28 melanoma
[57] = system: LOX IMVI melanoma

O=C1OC(c2ccccc2)=N/C1=C\c1ccc(Oc2ccc(Cl)c(Cl)c2)cc1
TGI [1]: > 100 µM | TGI [2]: > 100 µM | TGI [3]: > 100 µM | TGI [4]: > 100 µM | TGI [5]: > 100 µM | TGI [6]: 81.6 µM | TGI [7]: > 100 µM | TGI [8]: 69.3 µM | TGI [9]: > 100 µM | TGI [10]: 85.7 µM | TGI [11]: > 100 µM | TGI [12]: 85.6 µM | TGI [13]: > 100 µM | TGI [14]: > 100 µM | TGI [15]: 35.6 µM | TGI [16]: 78.8 µM | TGI [17]: > 100 µM | TGI [18]: > 100 µM | TGI [19]: 57.6 µM | TGI [20]: > 100 µM | TGI [21]: > 100 µM | TGI [22]: 46 µM | TGI [23]: > 100 µM | TGI [24]: 57 µM | TGI [25]: > 100 µM | TGI [26]: > 100 µM | TGI [27]: > 100 µM | TGI [28]: > 100 µM | TGI [29]: > 100 µM | TGI [30]: > 100 µM | TGI [31]: > 100 µM | TGI [32]: > 100 µM | TGI [33]: > 100 µM | TGI [34]: > 100 µM | TGI [35]: > 100 µM | TGI [36]: 59.9 µM | TGI [37]: 73.6 µM | TGI [38]: > 100 µM | TGI [39]: > 100 µM | TGI [40]: > 100 µM | TGI [41]: 60.6 µM | TGI [42]: > 100 µM | TGI [43]: 52.3 µM | TGI [44]: 58.4 µM | TGI [45]: 65.9 µM | TGI [46]: 56.9 µM | TGI [47]: > 100 µM

CCOC(=O)C(C)Sc1nnc(COc2ccccc2OC)n1-c1ccccc1 (configuration not stated)
TGI [1]: > 100 µM | TGI [2]: > 100 µM | TGI [3]: > 100 µM | TGI [4]: > 100 µM | TGI [5]: > 100 µM | TGI [6]: > 100 µM | TGI [7]: > 100 µM | TGI [48]: 59.9 µM | TGI [8]: > 100 µM | TGI [9]: > 100 µM | TGI [10]: > 100 µM | TGI [49]: > 100 µM | TGI [11]: > 100 µM | TGI [12]: > 100 µM | TGI [13]: > 100 µM | TGI [50]: > 100 µM | TGI [14]: > 100 µM | TGI [15]: 28.1 µM | TGI [16]: > 100 µM | TGI [17]: > 100 µM | TGI [18]: > 100 µM | TGI [51]: > 100 µM | TGI [19]: > 100 µM | TGI [20]: > 100 µM | TGI [21]: > 100 µM | TGI [22]: > 100 µM | TGI [23]: > 100 µM | TGI [25]: > 100 µM | TGI [26]: > 100 µM | TGI [27]: > 100 µM | TGI [52]: > 100 µM | TGI [28]: > 100 µM | TGI [29]: > 100 µM | TGI [30]: 30.6 µM | TGI [31]: > 100 µM | TGI [32]: > 100 µM | TGI [33]: 47 µM | TGI [53]: > 100 µM | TGI [34]: > 100 µM | TGI [35]: > 100 µM | TGI [36]: > 100 µM | TGI [37]: > 100 µM | TGI [38]: > 100 µM | TGI [54]: > 100 µM | TGI [55]: > 100 µM | TGI [56]: > 100 µM | TGI [39]: 32.2 µM | TGI [40]: > 100 µM | TGI [42]: > 100 µM | TGI [43]: > 100 µM | TGI [44]: > 100 µM | TGI [57]: 34.4 µM | TGI [45]: > 100 µM | TGI [46]: > 100 µM | TGI [47]: > 100 µM
